The values below come from patent US7754699B2, “Antiviral nucleosides” (Roche Palo Alto LLC, priority 2005, dated 2010).

In brackets after ≈: the same amount, converted by molar mass. Like-named read-outs stand apart in the source and are kept apart here.

In general, Papp A→B refers to how fast a substance crosses the layer from the apical side. A lower Papp A→B goes with poor permeation. A word on the solubility: it is how much of the substance goes into solution per volume. What is called melting point is the temperature, or range, at which the solid turns liquid.

A short description of one data set: in vitro. Type of data set: in vitro ADME. The conditions noted are these: human, Caco-2, Caco-2 (2-7d) Papp. The protocol:
To further evaluate potential behavior in human subjects, the transport through Caco-2 cells was evaluated for the putative prodrugs. Caco-2 cells are commonly used to evaluated the potential absorption/permeability of molecules (G. Gaviraghi et al. in Pharmacokinetic optimization in drug research. Biological, Pharmacokinetic and Computational Strategies. B. Testa et al. eds. Wiley Interscience VCH, Zurich 2001 pp 3-14).
Powders of Krebs-Henseleit buffer, calcium chloride dihydrate, and sodium bicarbonate were purchased from Sigma (St. Louis, Mo.). Caco-2 cells (Passage ˜100) were obtained from Roche Basel. DMEM/high medium, 4-(2-hydroxyethyl)-1-piperazineethane-sulfonic acid (HEPES), and bovine serum were obtained from JRH Bioscience (Lenexa, Kans.). MEM nonessential amino acids, L-glutamine, penicillin, and streptomycin were obtained from GIBCO Labs, Life Tech. LLC (Grand Island, N.Y.). Snapwell cell culture inserts ([…], 1.12 cm^2, 0.4 μm pore size) were obtained from Costar (Cambridge, Mass.).
Cells were grown in 75-cm^2 flasks and maintained at 37° C. in an atmosphere of 5% CO2 and 95% air. Culture media consisted of DMEM/high medium supplemented with 5% bovine serum, 25 mM HEPES, 1% MEM non-essential amino acids, 1% L-glutamine, 100 U/mL penicillin, and 100 μg/mL streptomycin. Cultures were passaged every week at a split ratio of 1-3. For the permeability studies, Caco-2 cells at passage number 110-120 were plated at a density of 400,000 cells/cm^2 on Transwell polycarbonate filters in Snapwell inserts and allowed to culture for 7 days prior to use.
Krebs-Henseleit bicarbonate buffer containing 10 mM glucose and 2.5 mM CaCl2 adjusted to pH 6.5 and 7.4 were prepared per packet instructions. Powder salts were quantitatively dissolved in about 90% of required volume with Millipore water. Calcium chloride dihydrate and sodium bicarbonate were added before pH adjustment with 1N HCl or 1N NaOH. Additional Millipore water was added to bring the solution to final volume. The solution was sterilized by filtration using membrane with a porosity of 0.22 microns and stored in the refrigerator ([…]) until use.
Differentiated cells were obtained from Cell Culture Core Facility and allowed to equilibrate at 37° C. in an atmosphere of 5% CO2 and 95% air. Snapwells inserts, containing caco-2 monolayers were rinsed in 37° C. equilibrated Krebs-Henseleit pH 7.4 buffer.
The cell insert was utilized as the diffusion chamber. The pH of the Krebs-Henseleit buffer in the apical and basolateral chambers was 6.5 and 7.4, respectively, and the initial concentration of substrate in apical side was 100 μM. […]
The Papp was calculated using the following formula: […]

Another data set in a line: Solubility. Type of data set: physicochemical. The protocol:
(§1) Particularly relevant are water solubility, partition coefficient and stability in gastric and intestinal fluids. […] The solubility in water of a orally administered prodrug should be greater than at least about 0.1 mg/mL for optimal formulation and the half-lives in simulated gastric fluid and simulated intestinal fluid should be 1-2 h and 2-4 h respectively to allow sufficient time to traverse the stomach and be absorbed in the intestine.

Data set [1] can be described thus: Stability in simulated intestinal fluid. Type of data set: physicochemical. The conditions noted are these: simulated intestinal fluid pH 7.4, 37° C.; read-out: SIF T1/2 (converted). As for the experimental part:
as §1

Data set [2] can be described thus: Stability in simulated gastric fluid. The format is physicochemical. The conditions noted are these: simulated gastric fluid pH 1.2, 37° C.; read-out: SGF T1/2 (converted). The protocol: as §1
Data set [3] is described as follows: Experimentally determined distribution coefficient. Type of data set: physicochemical. The note with it: octanol/buffered aqueous solution, pH 7.4; read-out: log D (distribution coefficient). The source says: The expression PO/W as used herein refers to the octanol/water partition coefficient. The expression clogP as used herein refers to the calculated PO/W. Computer programs which calculate PO/W are readily available to the pharmaceutical and medicinal chemist. The term distribution coefficient refers to the experimentally determined partition coefficient between octanol and a buffered aqueous solution. The partition coefficient and distribution coefficient are generally similar but the latter is a function of the pH of the aqueous solution whereas the PO/W is independent of pH.

A further data set has as its system HCV. The note with it: monotherapy; cited from earlier work.
Setting [4] is: aqueous media, water, or buffer pH 6.5, read-out: Solubility.
Where [5] appears, read: simulated gastric fluid (SGF), simulated gastric fluid, read-out: Solubility in SGF.
The mark [6] stands for this setting: simulated intestinal fluid (SIF), fassgf or other biorelevant, media is SIF, read-out: Solubility.

Consider `CCCOC(=O)OC[C@H]1O[C@@H](n2ccc(N)nc2=O)[C@](C)(F)[C@@H]1OC(=O)OCCC.Cl` [I-5, Carbonic acid (2R,3R,4R,5R)-5-(4-amino-2-oxo-2H-pyrimidin-1-yl)-4-fluoro-4-methyl-2-propoxycarbonyloxymethyl-tetrahydro-furan-3-yl ester propyl ester; hydrochloride salt], for which the melting point was in the range of 192 to 194.4 °C. This compound had a Papp A→B at 30 min, 100 μM in “in vitro” of 13.4 ×10⁻⁶ cm/s. For the same compound, the solubility in the data set “Solubility” (setting [4]) came to 130 µg/mL. Besides, the half-life in data set [1] was > 11 h. Besides, the half-life in data set [2] is > 10.4 h.
As for `CCC(=O)OC[C@H]1O[C@@H](n2ccc(N)nc2=O)[C@](C)(F)[C@@H]1OC(=O)CC` [I-3, Propionic acid (2R,3R,4R,5R)-5-(4-amino-2-oxo-2H-pyrimidin-1-yl)-4-fluoro-4-methyl-3-propionyloxy-tetrahydro-furan-2-ylmethyl ester], the melting point lay in the range of 185.2 to 186 °C. Further, the solubility in the data set “Solubility” (setting [5]) was 13600 µg/mL (≈ 36.6 mM). The solubility in “Solubility” (setting [6]) is 3700 µg/mL (≈ 9.96 mM). Moreover, the half-life in data set [1] was 72 h. Further, the logD in data set [3] was 0.9. Besides, in data set [2], the half-life is 9 h.
For the compound `NC(=O)c1ncn([C@@H]2O[C@H](CO)[C@@H](O)[C@H]2O)n1` [ribavirin, 1-((2R,3R,4S,5R)-3,4-Dihydroxy-5-hydroxymethyl-tetrahydro-furan-2-yl)-1H-[1,2,4]triazole-3-carboxylic acid amide], in the data set with HCV, the “reduces serum amino transferase levels to normal” value is given as 40 % of patients and the “serum levels of HCV-RNA” value is reported as “does not lower”.
As for `C[C@@]1(F)[C@H](O)[C@@H](CO)O[C@H]1n1ccc(N)nc1=O` [I-6, 4-amino-1-((2R,3R,4R,5R)-3-fluoro-4-hydroxy-5-hydroxymethyl-3-methyl-tetrahydro-furan-2-yl)-1H-pyrimidin-2-one, reference compound], the Papp A→B at 30 min, 100 μM in the data set “in vitro” stood at 0.4 ×10⁻⁶ cm/s. The solubility in the data set “Solubility” (setting [4]) turned out to be 76000 µg/mL (≈ 293 mM). Further, the half-life in data set [1] and in data set [2] was > 12 h each time.
With `CC(C)C(=O)OC[C@H]1O[C@@H](n2ccc(N)nc2=O)[C@](C)(F)[C@@H]1OC(=O)C(C)C` [I-2, Isobutyric acid (2R,3R,4R,5R)-5-(4-amino-2-oxo-2H-pyrimidin-1-yl)-4-fluoro-3-isobutyryloxy-4-methyl-tetrahydro-furan-2-ylmethyl ester], the Papp A→B at 30 min, 100 μM in the data set “in vitro” is 3.93 ×10⁻⁶ cm/s. Further, the solubility is 180 µg/mL (≈ 0.451 mM) in “Solubility” (setting [4]) and 13300 µg/mL (≈ 33.3 mM) in the data set “Solubility” (setting [5]). Further, the figures for the half-life in data set [1] and in data set [2] were 866 h and 25.1 h, respectively. For the same compound, the logD in data set [3] came to 1.67.
Turning to `CC(C)COC(=O)OC[C@H]1O[C@@H](n2ccc(N)nc2=O)[C@](C)(F)[C@@H]1OC(=O)OCC(C)C` [I-4, Carbonic acid (2R,3R,4R,5R)-5-(4-amino-2-oxo-2H-pyrimidin-1-yl)-4-fluoro-2-isobutoxycarbonyloxymethyl-4-methyl-tetrahydro-furan-3-yl ester isobutyl ester], the melting point lay in the range of 210 to 211.5 °C. The Papp A→B at 30 min, 100 μM in “in vitro” was 6.4 ×10⁻⁶ cm/s. Further, in the data set “Solubility” (setting [5]), the solubility was 160 µg/mL (≈ 0.348 mM). Moreover, the solubility in “Solubility” (setting [6]) was 13 µg/mL (≈ 0.0283 mM). Also, the half-life in data set [1] was > 15 h. Also, in data set [2], the half-life was > 7 h.
